Source: patent publication US20220062240A1, “METHODS OF TREATING CANCER USING A CLK INHIBITOR” (BioSplice Therapeutics, Inc., priority 2018, published 2022)
Like-named read-outs stand apart in the source and are kept apart here.

Columns and labels:
[1] = system: ovarian cancer (4 cell lines); assay: CellTiter-Glo Viability Assay, ovarian cancer; format: cell-based; settings: Homo sapiens, inhibition of cancer cell proliferation
[2] = system: liver cancer (3 cell lines); assay: CellTiter-Glo Viability Assay, liver cancer; format: cell-based; settings: Homo sapiens, inhibition of cancer cell proliferation
MDA-MB-231-Luc = assay: CellTiter-Glo Viability Assay, breast cancer; format: cell-based; settings: Homo sapiens, 96 h; MDA-MB-231-Luc, breast cancer, four days; read-out: EC50
DU4475 = assay: CellTiter-Glo Viability Assay, breast cancer; format: cell-based; settings: Homo sapiens, DU-4475, 96 h; DU4475, breast cancer, four days; read-out: EC50
ZR-75-1 = assay: CellTiter-Glo Viability Assay, breast cancer; format: cell-based; settings: Homo sapiens, 96 h; ZR-75-1, breast cancer, four days; read-out: EC50
MCF7 = assay: CellTiter-Glo Viability Assay, breast cancer; format: cell-based; settings: Homo sapiens, 96 h; MCF7, breast cancer, four days; read-out: EC50
CAMA1 = assay: CellTiter-Glo Viability Assay, breast cancer; format: cell-based; settings: Homo sapiens, CAMA-1, 96 h; CAMA1, breast cancer, four days; read-out: EC50
BT-549 = assay: CellTiter-Glo Viability Assay, breast cancer; format: cell-based; settings: Homo sapiens, 96 h; BT-549, breast cancer, four days; read-out: EC50
HCC1599 = assay: CellTiter-Glo Viability Assay, breast cancer; format: cell-based; settings: Homo sapiens, 96 h; HCC1599, breast cancer, four days; read-out: EC50
T47D = assay: CellTiter-Glo Viability Assay, breast cancer; format: cell-based; settings: Homo sapiens, 96 h, breast cancer, four days, read-out: EC50
[3] = system: prostate cancer (5 cell lines); assay: CellTiter-Glo Viability Assay, prostate cancer; format: cell-based; settings: Homo sapiens
[4] = system: haematopoietic & lymphoid tumors (13 cell lines); assay: CellTiter-Glo Viability Assay, haematopoietic & lymphoid tumors; format: cell-based; settings: Homo sapiens, inhibition of cancer cell proliferation
[5] = system: colorectal cancer (6 cell lines); assay: CellTiter-Glo Viability Assay, colorectal cancer; format: cell-based; settings: Homo sapiens, inhibition of cancer cell proliferation
[6] = system: lung cancer (4 cell lines); assay: CellTiter-Glo Viability Assay, lung cancer; format: cell-based; settings: Homo sapiens, inhibition of cancer cell proliferation
CLK2 = biological target: T1, CLK2 (Homo sapiens, UniProt P49760); assay: CLK2 kinase activity assay (Z-lyte, Ser/Thr 6 peptide); format: biochemical; settings: recombinant CLK2 kinase, ATP 60 μM; read-out: EC50
T1 construct: purchased Thermo Fisher (Life Technologies), Z'-LYTE Kinase Assay Kits
T1 sequence (P49760 whole entry): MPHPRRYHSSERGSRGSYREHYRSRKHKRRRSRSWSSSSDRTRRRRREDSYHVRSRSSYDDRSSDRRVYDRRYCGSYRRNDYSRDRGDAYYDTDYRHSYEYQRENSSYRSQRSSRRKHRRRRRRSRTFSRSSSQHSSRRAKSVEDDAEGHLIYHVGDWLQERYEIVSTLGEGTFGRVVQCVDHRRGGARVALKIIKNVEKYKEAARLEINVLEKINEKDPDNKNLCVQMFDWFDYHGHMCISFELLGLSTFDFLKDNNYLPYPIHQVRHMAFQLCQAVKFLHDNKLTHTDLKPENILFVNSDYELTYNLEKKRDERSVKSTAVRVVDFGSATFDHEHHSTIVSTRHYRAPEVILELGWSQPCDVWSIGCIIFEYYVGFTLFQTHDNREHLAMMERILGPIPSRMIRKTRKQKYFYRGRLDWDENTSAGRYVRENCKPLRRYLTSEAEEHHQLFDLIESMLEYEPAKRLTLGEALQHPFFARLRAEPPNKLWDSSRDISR
Protocol: All reactions were performed in duplicate.

[7] = system: pancreatic cancer (8 cell lines); assay: CellTiter-Glo Viability Assay, pancreatic cancer; format: cell-based; settings: Homo sapiens, inhibition of cancer cell proliferation
all 50 cell lines = assay: CellTiter-Glo Viability Assay, average across all cell lines; format: cell-based; settings: Homo sapiens; across all 50 cell lines; read-out: average EC50 for inhibition of cancer cell proliferation
In short: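 Proliferation of a multi-tissue human cancer line panel is assessed over four days at 37° C and 5% CO2, seeding 300-3,000 cells/well. Viability is quantified by CellTiter-Glo luminescence, and EC50 values are calculated.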

EC50 ([1]; PA-1, PA1 cell line, read-out: Ovarian cancer, EC50 (μM) PA1): > 10 µM
EC50 ([1]; TOV112D, TOV-112D cell line, read-out: Ovarian cancer, EC50 (μM) TOV-112D): > 10 µM
EC50 ([1]; OV-90 cell line, read-out: Ovarian cancer, EC50 (μM) OV-90): > 10 µM
EC50 ([1]; OVCAR-3 cell line, read-out: Ovarian cancer, EC50 (μM) OVCAR-3): 3.89 µM
EC50 ([2]; SNU-398, SNU398 cell line, read-out: Liver cancer, EC50 SNU398): 3.38 µM
EC50 ([2]; HEPG2 cell line, read-out: Liver cancer, EC50 HEPG2): > 10 µM
EC50 ([2]; PLC/PRF/5 cell line, read-out: Liver cancer, EC50 PLC/PRF/5): > 10 µM
EC50 (MDA-MB-231-Luc): > 10 µM
EC50 (DU4475): 1.66 µM
EC50 (ZR-75-1): > 10 µM
EC50 (MCF7): > 10 µM
EC50 (CAMA1): > 10 µM
EC50 (BT-549): 5.81 µM
EC50 (HCC1599): 2.2 µM
EC50 (T47D): > 10 µM
EC50 ([3]; DU-145, read-out: Prostate cancer EC50 Du-145): > 10 µM
EC50 ([3]; PC-3, PC3 cell line, inhibition of cancer cell proliferation, read-out: Prostate cancer EC50 PC3): 8.34 µM
EC50 ([3]; 22Rv1 cell line, inhibition of cancer cell proliferation, read-out: Prostate cancer EC50 22Rv1): 6.98 µM
EC50 ([3]; LNCap clone FGC cell line, inhibition of cancer cell proliferation, read-out: Prostate cancer EC50 LNCap clone FGC): > 10 µM
EC50 ([3]; VCaP (Sigma) cell line, inhibition of cancer cell proliferation, read-out: Prostate cancer EC50 VCaP (Sigma)): > 10 µM
EC50 ([4]; DND41, DND-41 cell line, read-out: Haematopoietic & Lymphoid tumors, EC50 (μM) DND-41): 2.38 µM
EC50 ([4]; MV4-11, MV-4-11 cell line, read-out: Haematopoietic & Lymphoid tumors, EC50 (μM) MV-4-11): 0.188 µM
EC50 ([4]; Rec1, REC-1 cell line, read-out: Haematopoietic & Lymphoid tumors, EC50 (μM) REC-1): 6.85 µM
EC50 ([4]; SU-DHL-4, SUDHL4 cell line, read-out: Haematopoietic & Lymphoid tumors, EC50 (μM) SUDHL4): 0.953 µM
EC50 ([4]; HL-60 cell line, read-out: Haematopoietic & Lymphoid tumors, EC50 (μM) HL-60): 3.13 µM
EC50 ([4]; JM1 cell line, read-out: Haematopoietic & Lymphoid tumors, EC50 (μM) JM1): 1.68 µM
EC50 ([4]; JURKAT, Clone E6-1 cell line, read-out: Haematopoietic & Lymphoid tumors, EC50 (μM) JURKAT, Clone E6-1): > 10 µM
EC50 ([4]; JeKo-1 cell line, read-out: Haematopoietic & Lymphoid tumors, EC50 (μM) JeKo-1): 0.917 µM
EC50 ([4]; KASUMI-1 cell line, read-out: Haematopoietic & Lymphoid tumors, EC50 (μM) KASUMI-1): 9.46 µM
EC50 ([4]; Loucy cell line, read-out: Haematopoietic & Lymphoid tumors, EC50 (μM) Loucy): 1.71 µM
EC50 ([4]; MOLT-4 cell line, read-out: Haematopoietic & Lymphoid tumors, EC50 (μM) MOLT-4): > 10 µM
EC50 ([4]; TF-1 cell line, read-out: Haematopoietic & Lymphoid tumors, EC50 (μM) TF-1): 4.32 µM
EC50 ([4]; TOLEDO cell line, read-out: Haematopoietic & Lymphoid tumors, EC50 (μM) TOLEDO): 1.85 µM
EC50 ([5]; HCT-116, HCT116 cell line, read-out: Colorectal cancer, EC50 (μM) HCT116): > 10 µM
EC50 ([5]; HT-29, HT29 cell line, read-out: Colorectal cancer, EC50 (μM) HT29): > 10 µM
EC50 ([5]; SW-620, SW620 cell line, read-out: Colorectal cancer, EC50 (μM) SW620): 7.7 µM
EC50 ([5]; DLD-1 cell line, read-out: Colorectal cancer, EC50 (μM) DLD-1): > 10 µM
EC50 ([5]; SW48 cell line, read-out: Colorectal cancer, EC50 (μM) SW48): 2.03 µM
EC50 ([5]; SW480 cell line, read-out: Colorectal cancer, EC50 (μM) SW480): > 10 µM
EC50 ([6]; A-427, A427 cell line, read-out: Lung cancer, EC50 (μM) A427): 7.79 µM
EC50 ([6]; HCC78, HCC-78 cell line, read-out: Lung cancer, EC50 (μM) HCC-78): > 10 µM
EC50 ([6]; NCI-H460 cell line, read-out: Lung cancer, EC50 (μM) NCI-H460): > 10 µM
EC50 ([6]; NCI-H522 cell line, read-out: Lung cancer, EC50 (μM) NCI-H522): 7.58 µM
EC50 (CLK2): 0.0028 µM
EC50 ([7]; BXPC-3, BxPC3 cell line, read-out: Pancreatic cancer, EC50 BxPC3): 7.25 µM
EC50 ([7]; CAPAN-1, Capan1 cell line, read-out: Pancreatic cancer, EC50 Capan1): > 10 µM
EC50 ([7]; Capan-2, Capan2 cell line, read-out: Pancreatic cancer, EC50 Capan2): > 10 µM
EC50 ([7]; MIA PaCa-2 cell line, read-out: Pancreatic cancer, EC50 MIA PaCa-2): 6.72 µM
EC50 ([7]; PANC 05.04 cell line, read-out: Pancreatic cancer, EC50 PANC 05.04): > 10 µM
EC50 ([7]; PANC-1 cell line, read-out: Pancreatic cancer, EC50 PANC-1): > 10 µM
EC50 ([7]; UPAFII cell line, read-out: Pancreatic cancer, EC50 UPAFII): > 10 µM
SMILES: CN1CCCn2cc(nn2)-c2nccc3[nH]c(nc23)-c2n[nH]c3ccc(cc23)-c2cncc(c2)C1 [Compound 57]
EC50 (all 50 cell lines): 7.29 µM
